From patent publication US20240368135A1 (VERTEX PHARMACEUTICALS INCORPORATED, priority 2021, published 2024)

These compounds were tested against human NaV 1.8 (Homo sapiens, UniProt Q9Y5Y9) (assay: E-VIPR assay detecting and measuring NaV inhibition properties). Conditions: HEK cells expressing truncated human NaV 1.8; in the presence of human serum (compound numbers followed by *); read-out: IC50 in the E-VIPR Assay, performed in the presence of human serum.
Assay type: cell-based
Method in brief: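 Membrane potential was followed by coumarin/oxonol FRET during electrical field stimulation of matrigel-seeded HEK cells carrying truncated human NaV1.8 plus KIR2.1. Dosing used 11 points, 3-fold steps, top 300 nM final, 0.625% DMSO, with or without 25% human serum.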

Chain of human NaV 1.8 (Q9Y5Y9 126-399 limits assumed): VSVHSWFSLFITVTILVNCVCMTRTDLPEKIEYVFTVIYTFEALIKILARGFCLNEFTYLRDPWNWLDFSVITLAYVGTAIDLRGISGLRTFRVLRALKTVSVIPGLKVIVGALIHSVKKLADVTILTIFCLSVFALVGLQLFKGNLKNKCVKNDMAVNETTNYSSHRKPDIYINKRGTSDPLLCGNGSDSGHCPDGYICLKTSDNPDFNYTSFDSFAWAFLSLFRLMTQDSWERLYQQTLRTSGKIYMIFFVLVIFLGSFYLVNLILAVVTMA
Chain of human NaV 1.8 (Q9Y5Y9 660-890 limits assumed): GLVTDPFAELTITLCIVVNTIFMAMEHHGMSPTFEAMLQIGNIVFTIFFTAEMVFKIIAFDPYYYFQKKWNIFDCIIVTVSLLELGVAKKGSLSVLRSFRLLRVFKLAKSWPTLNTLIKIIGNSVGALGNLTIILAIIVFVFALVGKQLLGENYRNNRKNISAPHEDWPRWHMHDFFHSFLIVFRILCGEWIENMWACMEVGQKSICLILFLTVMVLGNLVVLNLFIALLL
Chain of human NaV 1.8 (Q9Y5Y9 1148-1722 limits assumed): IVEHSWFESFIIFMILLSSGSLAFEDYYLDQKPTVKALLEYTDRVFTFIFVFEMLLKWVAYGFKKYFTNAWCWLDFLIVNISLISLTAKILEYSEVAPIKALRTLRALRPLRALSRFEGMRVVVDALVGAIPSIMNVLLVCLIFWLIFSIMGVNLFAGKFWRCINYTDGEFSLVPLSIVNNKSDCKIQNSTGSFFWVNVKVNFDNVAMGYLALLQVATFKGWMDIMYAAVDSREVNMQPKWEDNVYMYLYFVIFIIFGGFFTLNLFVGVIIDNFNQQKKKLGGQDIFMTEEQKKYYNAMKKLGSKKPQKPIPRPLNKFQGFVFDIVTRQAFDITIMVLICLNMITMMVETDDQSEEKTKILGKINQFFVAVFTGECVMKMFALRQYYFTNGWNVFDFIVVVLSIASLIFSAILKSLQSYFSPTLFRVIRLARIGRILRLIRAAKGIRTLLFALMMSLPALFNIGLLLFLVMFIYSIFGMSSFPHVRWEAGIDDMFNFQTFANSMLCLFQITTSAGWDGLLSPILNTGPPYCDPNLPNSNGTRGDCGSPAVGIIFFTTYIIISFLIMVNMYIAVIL

Row | Compound | IC50 [nM]
1 | COc1c([C@H]2[C@H](C(=O)Nc3ccnc(C(CO)OC)c3)O[C@@](C)(C(F)(F)F)[C@H]2C)ccc(F)c1F (single isomer, unassigned) [Compound 249, rel-(2R*,3S*,4S*,5R*)-3-(3,4-difluoro-2-methoxyphenyl)-N-(2-(2-hydroxy-1-methoxyethyl)pyridin-4-yl)-4,5-dimethyl-5-(trifluoromethyl)tetrahydrofuran-2-carboxamide] | < 10

Same assay, conditions: HEK cells expressing truncated human NaV 1.8; no human serum; read-out: IC50 in the E-VIPR Assay

Row | Compound | IC50 [nM]
2 | COc1c([C@H]2[C@H](C(=O)Nc3ccnc(C(CO)OC)c3)O[C@@](C)(C(F)(F)F)[C@H]2C)ccc(F)c1F (single isomer, unassigned) [Compound 248, rel-(2R*,3S*,4S*,5R*)-3-(3,4-difluoro-2-methoxyphenyl)-N-(2-(2-hydroxy-1-methoxyethyl)pyridin-4-yl)-4,5-dimethyl-5-(trifluoromethyl)tetrahydrofuran-2-carboxamide] | < 10
3 | COc1c(C2C(C(=O)Nc3ccnc(C(O)CF)c3)OC(C)(C(F)(F)F)C2C)ccc(F)c1F (single isomer, unassigned) [Compound 252, rel-(2R*,3S*,4S*,5R*)-3-(3,4-difluoro-2-methoxyphenyl)-N-(2-(2-fluoro-1-hydroxyethyl)pyridin-4-y1)-4,5-dimethyl-5-(trifluoromethyl)tetrahydrofuran-2-carboxamide] | < 10
4 | COc1c([C@H]2[C@H](C(=O)Nc3ccnc(C(O)CF)c3)O[C@@](C)(C(F)(F)F)[C@H]2C)ccc(F)c1F (single isomer, unassigned) [Compound 253, rel-(2R*,3S*,4S*,5R*)-3-(3,4-difluoro-2-methoxyphenyl)-N-(2-(2-fluoro-1-hydroxyethyl)pyridin-4-yl)-4,5-dimethyl-5-(trifluoromethyl)tetrahydrofuran-2-carboxamide] | < 10
5 | COc1c([C@H]2[C@H](C(=O)Nc3ccnc(C(O)C(F)F)c3)O[C@@](C)(C(F)(F)F)[C@H]2C)ccc(F)c1F (single isomer, unassigned) [Compound 254, rel-(2R*,3S*,4S*,5R*)-N-(2-(2,2-difluoro-1-hydroxyethyl)pyridin-4-yl)-3-(3,4-difluoro-2-methoxyphenyl)-4,5-dimethyl-5-(trifluoromethyl)tetrahydrofuran-2-carboxamide] | < 10
6 | COc1c([C@H]2[C@H](C(=O)Nc3cc(C(O)CCO)ncc3F)O[C@@](C)(C(F)(F)F)[C@H]2C)ccc(F)c1F (single isomer, unassigned) [Compound 256, rel-(2R*,3S*,4S*,5R*)-3-(3,4-difluoro-2-methoxyphenyl)-N-(2-(1,3-dihydroxypropyl)-5-fluoropyridin-4-yl)-4,5-dimethyl-5-(trifluoromethyl)tetrahydrofuran-2-carboxamide] | < 10
7 | CN=S(C)(=O)c1ccc(NC(=O)[C@@H]2O[C@@](C)(C(F)(F)F)[C@@H](C)[C@H]2c2ccc(F)c(F)c2OC)cn1 (single isomer, unassigned) [Compound 338] | 10 to 100
8 | CNC(c1cc(NC(=O)[C@@H]2O[C@@](C)(C(F)(F)F)[C@@H](C)[C@H]2c2ccc(F)c(F)c2OC)ccn1)C(C)(C)OC (single isomer, unassigned) [Compound 344, rel-(2R*,3S*,4S*,5R*)-3-(3,4-difluoro-2-methoxyphenyl)-N-(2-(2-methoxy-2-methyl-1-(methylamino)propyl)pyridin-4-yl)-4,5-dimethyl-5-(trifluoromethyl)-tetrahydrofuran-2-carboxamide] | < 10
9 | COCC(C)(N)c1cc(NC(=O)[C@@H]2O[C@@](C)(C(F)(F)F)[C@@H](C)[C@H]2c2ccc(F)c(F)c2OC)ccn1 (single isomer, unassigned) [Compound 352, rel-(2R*,3S*,4S*,5R*)-N-(2-(2-amino-1-methoxypropan-2-yl)pyridin-4-yl)-3-(3,4-difluoro-2-methoxyphenyl)-4,5-dimethyl-5-(trifluoromethyl)-tetrahydrofuran-2-carboxamide] | < 10

The remaining lines, values ahead:

Row | IC50 [nM] | Compound
10 | < 10 | COc1c([C@H]2[C@H](C(=O)Nc3ccnc(O[C@H]4COC[C@H]4O)c3)O[C@@](C)(C(F)(F)F)[C@H]2C)ccc(F)c1F (single isomer, unassigned) [Compound 240, rel-(2R*,3S*,4S*,5R*)-3-(3,4-difluoro-2-methoxyphenyl)-N-(2-(((3S,4R)-4-hydroxytetrahydrofuran-3-yl)oxy)pyridin-4-yl)-4,5-dimethyl-5-(trifluoromethyl)tetrahydrofuran-2-carboxamide]
11 | 10 to 100 | COc1c([C@H]2[C@H](C(=O)Nc3ccnc(O[C@H]4COC[C@H]4O)n3)O[C@@](C)(C(F)(F)F)[C@H]2C)ccc(F)c1F (single isomer, unassigned) [Compound 242, rel-(2R*,3S*,4S*,5R*)-3-(3,4-difluoro-2-methoxyphenyl)-N-(2-(((3S,4R)-4-hydroxytetrahydrofuran-3-yl)oxy)pyrimidin-4-yl)-4,5-dimethyl-5-(trifluoromethyl)tetrahydrofuran-2-carboxamide]
12 | < 10 | COc1c([C@H]2[C@H](C(=O)Nc3ccnc(C(O)C4CC4)c3)O[C@@](C)(C(F)(F)F)[C@H]2C)ccc(F)c1F (single isomer, unassigned) [Compound 251, rel-(2R*,3S*,4S*,5R*)-N-(2-(cyclopropyl(hydroxy)methyl)pyridin-4-yl)-3-(3,4-difluoro-2-methoxyphenyl)-4,5-dimethyl-5-(trifluoromethyl)tetrahydrofuran-2-carboxamide]
13 | < 10 | COc1c([C@H]2[C@H](C(=O)Nc3cn(C4COC4)nc3C)O[C@@](C)(C(F)(F)F)[C@H]2C)ccc(F)c1F (single isomer, unassigned) [Compound 330]
14 | 10 to 100 | COc1c([C@H]2[C@H](C(=O)Nc3cnn(C4COC4)c3C)O[C@@](C)(C(F)(F)F)[C@H]2C)ccc(F)c1F (single isomer, unassigned) [Compound 331]
15 | < 10 | COc1c([C@H]2[C@H](C(=O)Nc3ccc(S(C)(=N)=O)nc3)O[C@@](C)(C(F)(F)F)[C@H]2C)ccc(F)c1F (single isomer, unassigned) [Compound 336, rel-(2R*,3S*,4S*,5R*)-3-(3,4-difluoro-2-methoxyphenyl)-4,5-dimethyl-N-(6-(S-methylsulfonimidoyl)-pyridin-3-yl)-5-(trifluoromethyl)-tetrahydrofuran-2-carboxamide]
16 | 10 to 100 | COc1c([C@H]2[C@H](C(=O)Nc3ccc(S(C)(=N)=O)nc3)O[C@@](C)(C(F)(F)F)[C@H]2C)ccc(F)c1F (single isomer, unassigned) [Compound 337, rel-(2R*,3S*,4S*,5R*)-3-(3,4-difluoro-2-methoxyphenyl)-4,5-dimethyl-N-(6-(S-methylsulfonimidoyl)-pyridin-3-yl)-5-(trifluoromethyl)-tetrahydrofuran-2-carboxamide]
17 | 10 to 100 | COc1c([C@H]2[C@H](C(=O)Nc3ccnc(C4COCCN4)c3)O[C@@](C)(C(F)(F)F)[C@H]2C)ccc(F)c1F (single isomer, unassigned) [Compound 342, rel-(2R*,3S*,4S*,5R*)-3-(3,4-difluoro-2-methoxyphenyl)-4,5-dimethyl-N-(2-(morpholin-3-yl)pyridin-4-yl)-5-(trifluoromethyl)-tetrahydrofuran-2-carboxamide]
18 | < 10 | COc1c([C@H]2[C@H](C(=O)Nc3ccnc(C4(N)CCOC4)c3)O[C@@](C)(C(F)(F)F)[C@H]2C)ccc(F)c1F (single isomer, unassigned) [Compound 346, rel-(2R*,3S*,4S*,5R*)-N-(2-(3-aminotetrahydrofuran-3-yl)pyridin-4-yl)-3-(3,4-difluoro-2-methoxyphenyl)-4,5-dimethyl-5-(trifluoromethyl)-tetrahydrofuran-2-carboxamide]
19 | 10 to 100 | COc1c([C@H]2[C@H](C(=O)Nc3ccnc(C4(N)CCOC4)c3)O[C@@](C)(C(F)(F)F)[C@H]2C)ccc(F)c1F (single isomer, unassigned) [Compound 347, rel-(2R*,3S*,4S*,5R*)-N-(2-(3-aminotetrahydrofuran-3-yl)pyridin-4-yl)-3-(3,4-difluoro-2-methoxyphenyl)-4,5-dimethyl-5-(trifluoromethyl)-tetrahydrofuran-2-carboxamide]
20 | 10 to 100 | COc1c([C@H]2[C@H](C(=O)Nc3cc(C4(N)CCOC4)ncc3F)O[C@@](C)(C(F)(F)F)[C@H]2C)ccc(F)c1F (single isomer, unassigned) [Compound 348, rel-(2R*,3S*,4S*,5R*)-N-(2-(3-aminotetrahydrofuran-3-yl)-5-fluoropyridin-4-yl)-3-(3,4-difluoro-2-methoxyphenyl)-4,5-dimethyl-5-(trifluoromethyl)-tetrahydrofuran-2-carboxamide]
21 | < 10 | COc1c([C@H]2[C@H](C(=O)Nc3cc(C4(N)CCOC4)ncc3F)O[C@@](C)(C(F)(F)F)[C@H]2C)ccc(F)c1F (single isomer, unassigned) [Compound 349, rel-(2R*,3S*,4S*,5R*)-N-(2-(3-aminotetrahydrofuran-3-yl)-5-fluoropyridin-4-yl)-3-(3,4-difluoro-2-methoxyphenyl)-4,5-dimethyl-5-(trifluoromethyl)-tetrahydrofuran-2-carboxamide]
22 | 10 to 100 | COc1c([C@H]2[C@H](C(=O)Nc3cc(C4CNCCO4)ncc3F)O[C@@](C)(C(F)(F)F)[C@H]2C)ccc(F)c1F (single isomer, unassigned) [Compound 350, rel-(2R*,3S*,4S*,5R*)-3-(3,4-difluoro-2-methoxyphenyl)-N-(5-fluoro-2-(morpholin-2-yl)pyridin-4-yl)-4,5-dimethyl-5-(trifluoromethyl)-tetrahydrofuran-2-carboxamide]
